US20200291018A1, “TAM KINASE INHIBITORS” (SYROS PHARMACEUTICALS, INC., priority 2017, published 2020)

Columns and labels:
AXL = biological target: T1, AXL (Homo sapiens, UniProt P30530); assay: TR-FRET kinase activity assay, AXL; type: biochemical; conditions: ATP at Km, 60 minutes
T1 sequence (P30530 26-894): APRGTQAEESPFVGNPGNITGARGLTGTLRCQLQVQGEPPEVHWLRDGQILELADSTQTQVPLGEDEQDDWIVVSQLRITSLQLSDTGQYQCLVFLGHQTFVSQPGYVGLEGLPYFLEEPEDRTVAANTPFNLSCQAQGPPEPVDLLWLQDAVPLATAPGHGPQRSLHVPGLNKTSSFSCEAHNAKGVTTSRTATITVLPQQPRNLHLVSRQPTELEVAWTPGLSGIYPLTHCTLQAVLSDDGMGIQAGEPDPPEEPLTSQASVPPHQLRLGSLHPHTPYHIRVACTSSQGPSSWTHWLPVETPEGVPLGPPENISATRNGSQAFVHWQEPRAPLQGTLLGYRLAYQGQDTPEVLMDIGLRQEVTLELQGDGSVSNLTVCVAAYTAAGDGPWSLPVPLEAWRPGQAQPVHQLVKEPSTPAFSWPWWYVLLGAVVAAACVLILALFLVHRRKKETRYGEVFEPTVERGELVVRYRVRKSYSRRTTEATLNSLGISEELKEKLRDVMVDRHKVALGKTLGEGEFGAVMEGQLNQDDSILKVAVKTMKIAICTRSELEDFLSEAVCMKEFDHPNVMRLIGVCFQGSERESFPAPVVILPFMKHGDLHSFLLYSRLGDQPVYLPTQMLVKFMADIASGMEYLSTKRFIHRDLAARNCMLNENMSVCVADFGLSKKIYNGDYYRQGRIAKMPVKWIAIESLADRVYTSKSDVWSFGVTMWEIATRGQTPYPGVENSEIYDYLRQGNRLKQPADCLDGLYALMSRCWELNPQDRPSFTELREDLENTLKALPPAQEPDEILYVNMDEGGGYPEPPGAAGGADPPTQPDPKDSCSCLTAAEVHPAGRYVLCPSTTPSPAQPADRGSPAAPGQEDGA
Method in brief: (§1)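 IC50s come from loss of TR-FRET between a Eu-labeled phospho-site antibody and fluorescent tyrosine-phosphorylated peptide. Kinase reactions, initiated with Km ATP, ran 60 min at RT at pH 7.5 before EDTA quench.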

FLT3 = biological target: T2, FLT3 (Homo sapiens, UniProt P36888); assay: TR-FRET kinase activity assay, FLT3; type: biochemical; conditions: ATP at Km, 60 minutes
T2 sequence (P36888 27-993): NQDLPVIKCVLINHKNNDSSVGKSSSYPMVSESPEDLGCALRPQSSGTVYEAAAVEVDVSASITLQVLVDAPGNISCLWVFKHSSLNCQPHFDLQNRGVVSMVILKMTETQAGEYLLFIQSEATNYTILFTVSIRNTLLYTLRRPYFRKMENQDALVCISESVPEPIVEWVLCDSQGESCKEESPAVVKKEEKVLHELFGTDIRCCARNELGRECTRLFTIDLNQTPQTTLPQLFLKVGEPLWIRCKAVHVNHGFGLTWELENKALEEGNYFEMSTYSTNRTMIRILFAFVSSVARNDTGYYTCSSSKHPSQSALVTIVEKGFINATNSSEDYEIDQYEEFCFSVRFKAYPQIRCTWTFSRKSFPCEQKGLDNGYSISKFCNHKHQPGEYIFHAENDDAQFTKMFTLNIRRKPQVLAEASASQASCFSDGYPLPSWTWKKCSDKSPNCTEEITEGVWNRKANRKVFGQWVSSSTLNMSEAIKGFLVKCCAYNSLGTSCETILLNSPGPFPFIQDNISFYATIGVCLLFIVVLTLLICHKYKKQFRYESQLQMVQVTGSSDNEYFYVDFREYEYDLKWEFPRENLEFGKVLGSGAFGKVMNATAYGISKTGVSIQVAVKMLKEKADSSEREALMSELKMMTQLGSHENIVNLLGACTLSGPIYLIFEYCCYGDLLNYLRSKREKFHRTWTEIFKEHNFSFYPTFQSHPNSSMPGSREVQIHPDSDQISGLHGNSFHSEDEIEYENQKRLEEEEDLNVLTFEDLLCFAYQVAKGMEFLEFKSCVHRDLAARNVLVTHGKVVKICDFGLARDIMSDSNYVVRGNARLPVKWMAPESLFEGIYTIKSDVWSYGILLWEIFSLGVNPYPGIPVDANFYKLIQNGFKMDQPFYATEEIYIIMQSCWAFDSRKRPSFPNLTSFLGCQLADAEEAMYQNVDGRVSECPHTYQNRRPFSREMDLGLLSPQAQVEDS
Method in brief: as §1

Structure (SMILES)	IC50 (AXL) [nM]	IC50 (FLT3) [nM]
CCCC(C)Nc1ncc2c(=O)n(C3CCNCC3)cc([C@H]3CC[C@H](O)CC3)c2n1 (stereo partly drawn) [Compound 112]	100 to 1000	1000 to 10000
CCCCNc1cc2c(cn1)c(=O)n(C1CCN(C)CC1)cc2[C@H]1CC[C@H](O)CC1 [Compound 116]	100 to 1000	100 to 1000
CCCC(C)Nc1ncc2c(=O)n(C3CCN(C)CC3)cc([C@H]3CC[C@H](O)CC3)c2n1 (stereo partly drawn) [Compound 117]	100 to 1000	1000 to 10000
CC(C)CC(C)Nc1ncc2c(=O)n(C3CCNCC3)cc([C@H]3CC[C@H](O)CC3)c2n1 (stereo partly drawn) [Compound 119]	100 to 1000	1000 to 10000
CS(=O)(=O)N1CC[C@H](Nc2ncc3c(OC4CCOCC4)ncc([C@H]4CC[C@H](O)CC4)c3n2)C1 [Compound 278]	1000 to 10000	1000 to 10000
COC[C@H](C)Nc1ncc2c(OC3CCOCC3)ncc(-c3ccc(N4CCN(C)CC4)cc3)c2n1 [Compound 279]	1000 to 10000	1000 to 10000
COC[C@H](C)Nc1ncc2c(OC3CCOCC3)ncc(-c3ccc(C4CCN(C)CC4)cc3)c2n1 [Compound 280]	100 to 1000	1000 to 10000
CCOC[C@H](C)Nc1ncc2c(OC3CCOCC3)ncc([C@H]3CC[C@H](O)CC3)c2n1 [Compound 281]	1000 to 10000	1000 to 10000
CN1CC(Nc2ncc3c(OC4CCOCC4)ncc([C@H]4CC[C@H](O)CC4)c3n2)CC1=O (stereo partly drawn) [Compound 282]	1000 to 10000	1000 to 10000
O=C(O)c1ccc(Nc2ncc3c(OC4CCNCC4)ncc([C@H]4CC[C@H](O)CC4)c3n2)cc1 [Compound 283]	≤ 100	100 to 1000
C[C@@H](CCO)Nc1ncc2c(OC3CCOCC3)ncc([C@H]3CC[C@H](O)CC3)c2n1 [Compound 284]	1000 to 10000	1000 to 10000
COC[C@H](C)Nc1cc2c(cn1)c(OC1CCOCC1)ncc2[C@H]1CC[C@H](O)CC1 [Compound 285]	1000 to 10000	1000 to 10000
O[C@H]1CC[C@H](c2cnc(OC3CCOCC3)c3cnc(NCCC(F)(F)F)nc32)CC1 [Compound 286]	100 to 1000	≤ 100
CC[C@H](C)Nc1ncc2c(O[C@H]3CC[C@](C)(O)CC3)ncc([C@H]3CC[C@H](O)CC3)c2n1 [Compound 287]	100 to 1000	100 to 1000
CC(C)Nc1ncc2c(OC3CCOCC3)ncc(-c3cccc(S(=O)(=O)N(C)C)c3)c2n1 [Compound 288]	100 to 1000	100 to 1000
COC[C@H](C)Nc1ncc2c(OC3CCN(S(C)(=O)=O)CC3)ncc([C@H]3CC[C@H](O)CC3)c2n1 [Compound 289]	100 to 1000	1000 to 10000
CC[C@H](C)Nc1ncc2c(=O)n([C@H]3CC[C@H](N)CC3)cc([C@H]3CC[C@H](O)CC3)c2n1 [Compound 290]	100 to 1000	1000 to 10000
CC1(Nc2ncc3c(OC4CCNCC4)ncc([C@H]4CC[C@H](O)CC4)c3n2)CC1 [Compound 291]	100 to 1000	1000 to 10000
C[C@@H](CC#N)Nc1ncc2c(OC3CCOCC3)ncc([C@H]3CC[C@H](O)CC3)c2n1 [Compound 292]	100 to 1000	1000 to 10000
COC[C@H](C)Nc1ncc2c(OC3CCOCC3)ncc([C@H]3CC[C@](C)(O)CC3)c2n1 [Compound 293]	100 to 1000	1000 to 10000
COC[C@H](C)Nc1ncc2c(OC3CCOCC3)ncc([C@H]3CC[C@@](C)(O)CC3)c2n1 [Compound 294]	1000 to 10000	1000 to 10000
